Measured values as given in paper PMC8968952, “Modulation of ERCC1-XPF Heterodimerization Inhibition via Structural Modification of Small Molecule Inhibitor Side-Chains” (Frontiers in Oncology, 2022).
Values joined by “and” are separate entries in the source; they are usually repeats but may differ in a detail not shown here. Identical values can stand only once.

What was measured:
ERCC1-XPF = target: T1, ERCC1-XPF (Homo sapiens, UniProt Q92889); experiment: Microplate fluorescence incision assay (endonuclease activity); assay type: biochemical
T1 construct: the final purity of the full-length ERCC1-XPF heterodimer was determined to be ~35%; His6; made in house; host or cells: E. coli BL21(DE3)
T1 sequence (Q92889 1-916): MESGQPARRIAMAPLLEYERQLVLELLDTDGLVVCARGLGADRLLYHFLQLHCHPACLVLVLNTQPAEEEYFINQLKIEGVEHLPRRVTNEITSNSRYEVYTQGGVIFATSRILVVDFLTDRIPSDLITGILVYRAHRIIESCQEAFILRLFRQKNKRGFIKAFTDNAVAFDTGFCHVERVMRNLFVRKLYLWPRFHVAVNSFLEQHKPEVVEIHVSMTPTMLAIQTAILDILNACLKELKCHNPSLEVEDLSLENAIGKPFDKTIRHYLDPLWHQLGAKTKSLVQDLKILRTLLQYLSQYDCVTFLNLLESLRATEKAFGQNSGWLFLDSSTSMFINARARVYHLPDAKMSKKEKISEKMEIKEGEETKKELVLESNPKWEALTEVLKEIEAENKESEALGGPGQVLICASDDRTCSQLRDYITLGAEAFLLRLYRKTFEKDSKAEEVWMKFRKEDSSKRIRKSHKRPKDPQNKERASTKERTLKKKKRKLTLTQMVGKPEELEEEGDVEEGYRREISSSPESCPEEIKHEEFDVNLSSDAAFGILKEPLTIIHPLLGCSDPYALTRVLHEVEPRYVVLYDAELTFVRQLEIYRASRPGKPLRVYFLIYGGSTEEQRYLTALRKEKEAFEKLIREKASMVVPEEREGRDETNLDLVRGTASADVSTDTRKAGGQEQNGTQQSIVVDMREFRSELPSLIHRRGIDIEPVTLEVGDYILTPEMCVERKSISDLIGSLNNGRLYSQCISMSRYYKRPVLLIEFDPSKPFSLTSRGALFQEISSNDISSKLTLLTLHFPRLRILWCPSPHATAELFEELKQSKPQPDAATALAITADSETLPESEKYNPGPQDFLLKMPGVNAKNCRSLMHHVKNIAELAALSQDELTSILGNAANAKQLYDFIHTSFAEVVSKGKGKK
From the text: Recombinant human ERCC1–XPF wild-type protein (containing polyhistidine (His-6) tags) was expressed from a bicistronic plasmid (kindly provided by Dr. Richard Wood, University of Texas MD Anderson Cancer Center, Smithville, TX) in the E. coli BL21(DE3) strain, Following previously described procedures ([70], [78]) the proteins extracted from E. coli were eluted from a ProBond Nickel-Chelating Resin (Thermo Fisher Scientific) and then a Hi-trap heparin column (GE Healthcare). Fractions containing ERCC1–XPF were dialyzed, concentrated, and stored at −80°C in 10 mM HEPES, pH 7.4, 2.5 mM β-mercaptoethanol, 0.01% CHAPS, 0.25 mM EDTA, 50% glycerol, and 25 mM NaCl. Based on polyacrylamide gel separation and Coomassie Blue staining, the final purity of the full-length ERCC1-XPF heterodimer was determined to be ~35%.
We employed a previously described protocol ([60], [70], [78]) in which the incision of the stem–loop substrate [6-FAM-5′-[…](20T)[…]-3′-dabcyl] (100 nM in 50 mM Tris-HCl, pH 8, 20 mM NaCl, 0.5 mM DDT, and 0.75 mM MnCl2) mediated by ERCC1-XPF (25 ng) in a total volume of 20 μL at 25°C was monitored by fluorescence using a FLUOstar Optima fluorimeter (BMG Labtech) with Optima software and excitation and emission wavelengths of 485 and 520 nm, respectively, for 5.5 min. The final concentration of inhibitor in the reaction was 10 μM prepared from a 200 μM stock solution in DMSO. With a molecular weight of 151 KDa for the XPF-ERCC1 heterodimer, a concentration of 25 ng of protein in 20 µl reaction buffer and a purity of 35%, the molar concentration of the enzyme was estimated to be 2.9 nM. Data were plotted using Microsoft Excel 2016.
An in vitro fluorescence-based assay was used to assess the ability of the synthesized compounds to inhibit the endonuclease activity of ERCC1-XPF. This assay has been previously described ([60], [70], [78]) and makes use of a stem-loop DNA substrate with a 5’-FAM fluorescent dye, and a 3’-dabcyl quencher. When ERCC1-XPF can cleave the DNA substrate, a 5’-FAM containing molecule is liberated from the stem-loop (and the quencher) and the fluorescence of the solution increases. The increase of the fluorescence of the solution can be observed in Figure 3A , in the absence of any inhibitor. To determine the influence of the inhibitory compounds, the protein was preincubated for 10 minutes with 10 μM of each inhibitor prior to addition of the substrate.

HCT-116 cells = experiment: Cellular repair of cyclobutane pyrimidine dimers (cellular NER) after UVC; assay type: cell-based, human; details: 2 μM
Procedure: We followed the protocol of Mirzayans et al. ([79]) with minor modifications as previously described ([70]). Inhibitor compounds were dissolved in DMSO and applied to a final DMSO concentration of 0.2% in media and 0.2% DMSO was used as the vehicle control. Mouse anti-thymine dimer monoclonal antibody (cat. no. MC-062, Kamiya Biomedical Company, Seattle, WA) was used for the immunofluorescence following UVC irradiation of the cells and fluorescent microscopic evaluation and measurement of fluorescence intensity were performed using MetaXpress, version 6.2.1.704, software (Molecular Devices, Sunnyvale, California). Data were plotted using GraphPad Prism version 5.04 software.
Immunofluorescent detection of cyclobutane pyrimidine dimers (CPD) generated in the DNA of HCT-116 cells after exposure to UVC radiation was used to measure NER. Our observations that approximately 80% of CPD were removed 24 hours post irradiation in the absence of any inhibitors mirrors previous observations ([70], [79]).

[1] = Metabolic stability in human liver microsomes; assay type: in vitro ADME
Procedure: (§1) The ADME (absorption, distribution, metabolism, and excretion) profile of our lead compound 6 was determined by standard protocols carried out by WuXi AppTec (Shanghai) Co (https://www.wuxiapptec.com/). The following tests were conducted: distribution coefficient (log D at pH 7.4), aqueous solubility (Kinetic), metabolic stability in human liver microsomes and cryopreserved human hepatocytes, bidirectional permeability in Caco-2 cells, serum protein binding, and cytochrome P450 (CYP) inhibition (CYP1A2, CYP2C9, CYP2C19, CYP2D6, and CYP3A4-M).

CYP3A4-M = CYP3A4-M (Homo sapiens, UniProt P08684); experiment: Cytochrome P450 inhibition, CYP3A4-M; assay type: in vitro ADME
Procedure: as §1

Chain of CYP3A4-M (P08684 whole entry): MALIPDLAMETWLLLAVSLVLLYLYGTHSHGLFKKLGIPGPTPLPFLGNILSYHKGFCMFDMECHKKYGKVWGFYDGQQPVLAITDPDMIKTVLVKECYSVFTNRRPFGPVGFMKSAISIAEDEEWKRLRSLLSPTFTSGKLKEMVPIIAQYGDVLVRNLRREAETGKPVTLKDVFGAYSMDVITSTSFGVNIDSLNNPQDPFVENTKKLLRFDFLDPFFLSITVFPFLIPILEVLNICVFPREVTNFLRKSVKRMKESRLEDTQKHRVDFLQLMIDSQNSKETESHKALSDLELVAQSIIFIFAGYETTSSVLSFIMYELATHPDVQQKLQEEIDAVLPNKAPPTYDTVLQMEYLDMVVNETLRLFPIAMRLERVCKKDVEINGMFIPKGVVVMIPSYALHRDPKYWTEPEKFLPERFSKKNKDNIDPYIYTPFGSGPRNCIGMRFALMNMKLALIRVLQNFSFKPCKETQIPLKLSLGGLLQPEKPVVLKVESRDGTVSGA

IC50 (ERCC1-XPF): 0.167 µM and 0.17 µM | decrease of ERCC1-XPF endonuclease activity (ERCC1-XPF; 10 μM inhibitor, at 5.5 minutes): 94% | metabolic stability grade, liver microsome assay (in words) [1]: low to moderate metabolic stability | CLint scaled ([1]; human, liver microsomes, read-out: Metabolic stability in human liver microsomes (clearance)): 22.6 L/h/kg | CYP3A4-M inhibition grade (in words) (CYP3A4-M): moderate inhibitor | IC50 (CYP3A4-M): 1.9 µM
Structure (SMILES): COc1ccc2nc3cc(Cl)ccc3c(Nc3ccc(O)c(CN4CCN(CCN(C(C)C)C(C)C)CC4)c3)c2c1 [Compound 6]
inhibition of ERCC1-XPF endonuclease activity (in words, vs control and 4) (ERCC1-XPF; 10 μM inhibitor, 10 min preincubation): increased inhibition of ERCC1-XPF endonuclease activity relative to 4 | effect on CPD removal / cellular NER (in words) (HCT-116 cells): significant inhibition of NER
